Measurements from patent publication US20240165280A1, “METHODS FOR TREATMENT OF CANCERS” (Fusion Pharmaceuticals Inc., priority 2021, published 2024).
Entries after “also recorded” stand apart in the source; their conditions may differ.

Tests used:
[1] = system: HT-29 xenograft tumors; test: Therapy study of [^177Lu]-3BP-227 and [^225Ac]-3BP-227 in CD-1 Nude mice bearing HT-29 xenograft tumors; type: in vivo; conditions: for tumor growth inhibition relative to controls: single i.v. dose 4.5 mCi per mouse (8,325 MBq/kg), HT-29 xenografts, monitored 34 days
Method: (§1) For therapeutic efficacy studies, single doses of 3,885-8,325 MBq/kg of [^177Lu]-3BP-227 (2,100-4,500 μCO or 1.85-5.55 MBq/kg of [^225Ac]-3BP-227 (1-3 μCO were administered to animals bearing HT29 xenografts (average tumor volume=212±46 mm^3), and tumor growth was monitored for 77 days. Mice in the control group were administered vehicle alone (10% ethanol in PBS). Study endpoints included tumor volume measurement and/or impact to animal health status.
A therapy efficacy study of [^177Lu]-3BP-227 and [^225Ac]-3BP-227 was conducted in mice comprising the following: • 1. 30 CD-1 Nude mice (5-6 week-old females; Charles River Laboratories) bearing subcutaneous HT-29 (ATCC #HTB-38; colorectal adenocarcinoma) tumor xenografts distributed amongst 5 groups (n=6). There were two groups each treated with [^177Lu]-3BP-227 or [^225Ac]-3BP-227 and 1 control group (below). • 2. Target dose of radioactivity was 2.1 or 4.5 mCi of [^177Lu]-3BP-227 per mouse, or 1 or 3 μCi of [^225Ac]-3BP-227 per mouse, for radiotherapy groups. • 3. Mice in the control group were administered vehicle alone (10% ethanol in PBS). • 4. For all groups, tumor size and mouse weight were monitored for 34-77 days. Relative tumor volume, relative mouse weight, and tumor regression relative to control were also calculated.
Perform an in vivo therapy study to determine the efficacy of [^177Lu]-3BP-227 and [^225Ac]-3BP-227, for the treatment of subcutaneous HT-29 xenograft tumors in nude mice.
Groups of CD-1 Nude female mice (five groups; n=6 each, 30 total) will be administered radiolabelled test articles via intravenous injection once.
[^177Lu]-3BP-227 will be dissolved in PBS containing 10% ethanol and prepared at a concentration of about 13 mCi/mL and about 25 mCi/mL. [^177Lu]-3BP-227 compounds would be administered (in 200 μL) at a dose of 2.1 mCi (about 13 mCi/mL stock) or 4.5 mCi (about 25 mCi/mL stock) to two groups of animals (n=12 total). [^225Ac]-3BP-227 will be dissolved in PBS containing 10% ethanol and prepared at a concentration of 5 μCi/mL and 15 μCi/mL. [^225Ac]-3BP-227 compounds will be administered (in 200 μL) at a dose of 1 μCi (5 μCi/ml stock) or 3 μCi (15 μCi/mL stock) to two groups of animals (n=12 total). […] The length (L) and width (W) of the tumor will be measured three times a week up to day 28, and the tumor volume will be calculated as per Section 13, Data Calculations and Statistical Analysis. […]
1. Tumor volume is calculated according to the formula: TV=(L×W^2)×0.52, where L is the longest diameter (length) of the tumor and W is the shortest diameter (width) of the tumor. Tumor volume at day n is expressed as relative tumor volume (RTV) according to the following formula: RTV=TVn/TV0, where TVn is the tumor volume at day n, and TV0 is the tumor volume at day 0. […]

[2] = Tolerability (mouse weight, health status) in the therapy study; type: in vivo, CD-1 Nude mice
Method: as §1
A therapy efficacy study of [^177Lu]-3BP-227 and [^225Ac]-3BP-227 was conducted in mice comprising the following: • 1. […] Target dose of radioactivity was 2.1 or 4.5 mCi of [^177Lu]-3BP-227 per mouse, or 1 or 3 μCi of [^225Ac]-3BP-227 per mouse, for radiotherapy groups. • 3. […] For all groups, tumor size and mouse weight were monitored for 34-77 days. Relative tumor volume, relative mouse weight, and tumor regression relative to control were also calculated.
[^177Lu]-3BP-227 will be dissolved in PBS containing 10% ethanol and prepared at a concentration of about 13 mCi/mL and about 25 mCi/mL. […] The length (L) and width (W) of the tumor will be measured three times a week up to day 28, and the tumor volume will be calculated as per Section 13, Data Calculations and Statistical Analysis. […]

[3] = system: HT-29 xenografts; test: Earlier [^177Lu]-3BP-227 therapy study (Study 1), HT-29 xenografts in nude mice; type: in vivo
[4] = system: HT-29 xenografts; test: Earlier [^177Lu]-3BP-227 therapy study (Study 2), HT-29 xenografts; type: in vivo, nude mice; conditions: 4.5 mCi per mouse, tumor volume about 450 mm^3 at injection
[5] = system: NTSR1-expressing HT-29 xenograft tumors; test: Uptake and persistence in NTSR1-expressing HT-29 xenograft tumors; type: in vivo; conditions: NTSR1-expressing HT-29 xenograft tumors in Nude mice
Description: (§2) The compounds to be evaluated are [^177Lu]-3BP-227 and [^225Ac]-3BP-227, which are the ^177Lu and ^225Ac radiolabelled versions, respectively, of the compound of Formula I (also referred as 3BP-227). NTSR1 is overexpressed in several types of cancer, e.g., pancreatic ductal adenocarcinoma (PDAC), Ewing's sarcoma and prostate cancer, but it is rarely expressed in normal tissues.

[6] = system: 293 tumor xenografts; test: Uptake into 293 tumor xenografts, which do not express NTSR1; type: in vivo; conditions: 293 tumor xenografts (no NTSR1 expression)
Description: as §2

[7] = Acute toxicity in mice with [^177Lu]-3BP-227 therapy (earlier studies); type: in vivo; conditions: earlier [^177Lu]-3BP-227 therapy studies in mice

## COc1cccc(OC)c1-c1cc(C(=O)NC2(C(=O)O)C3CC4CC(C3)CC2C4)nn1-c1ccc(C(=O)N(C)CCCN(C)CCCN(C)C(=O)CN2CCN(CC(=O)[O-])CCN(CC(=O)[O-])CCN(CC(=O)[O-])CC2)cc1C(C)C.[177Lu+3] (stereo not shown) [[^177Lu]-3BP-227]
[1]; 4.5 mCi [^177Lu]-3BP-227 versus 1 μCi [^225Ac]-3BP-227 group
  frequency of significant tumor regrowth: significant tumor regrowth was more frequent
[1]; 4.5 mCi group, whole monitoring period
  duration of tumor growth inhibition relative to controls: 34 days
[1]
  tumor growth inhibition relative to controls: inhibition in the growth of tumors; also recorded: significant and durable tumor growth inhibition
[1]; listed as [^177Lu]3BP-227
  tumor growth inhibition relative to controls: efficacious at suppressing tumor growth
[2]; 2.1 and 4.5 mCi groups, 34 days
  weight gain compared with vehicle control: indistinguishable weight gain
[2]; all dose groups of the studies
  treatment-related toxicities: no treatment-related toxicities observed
[3]; about 2.1 mCi per mouse
  inhibition of tumor growth: somewhat inhibited tumor growth
[3]; about 4.5 mCi per mouse, tumor volume about 200 mm^3 at injection
  suppression of tumor growth: effective as a therapy for suppressing tumor growth
[3]; particularly evident at about 4.5 mCi per mouse
  duration of tumor growth suppression: at least 60 days
[4]
  suppression of HT-29 tumor growth: not efficacious at suppressing HT-29 tumor growth
[5]
  tumor uptake and persistence: good uptake and persistence
[6]
  tumor uptake: minimal uptake
[7]
  acute toxicity: no observed acute toxicity
